Source: ChEMBL document CHEMBL5465560, “Selectivity Literature for EUbOPEN Chemogenomic Library” (2024)

Assays:
[1] = molecular target: Serine/threonine-protein kinase pim-2 (Homo sapiens, UniProt Q9P1W9); experiment: Selectivity interaction (Enzymatic assay (Eurofins)) EUB0001049a PIM2
[2] = molecular target: Tyrosine-protein kinase Fes/Fps (Homo sapiens) (UniProt P07332); experiment: Selectivity interaction (Millipore kinase profiler) EUB0000124b FES; conditions: at 10 µM
[3] = molecular target: Ribosomal protein S6 kinase alpha-1 (Homo sapiens, UniProt Q15418); experiment: Selectivity interaction (KinomeScan (DiscoverX)) EUB0000666a RPS6KA1; conditions: at 10 µM
[4] = molecular target: Dual specificity protein kinase CLK3 (Homo sapiens, UniProt P49761); experiment: Selectivity interaction (Kinase panel (KiNativ target engagement assay in Jurkat cells)) EUB0001635a CLK3; format: cell-based; conditions: Selectivity number of off-targets 0.0, Selectivity number of targets 233.0, Source Knowledge https://www.sciencedirect.com/science/article/pii/S2451945619300674?via%3Dihub, at 1 µM
[5] = molecular target: Mitogen-activated protein kinase kinase kinase kinase 5 (Homo sapiens) (UniProt Q9Y4K4); experiment: Selectivity interaction (Kinase panel (KiNativ target engagement assay in Jurkat cells)) EUB0001635a MAP4K5; format: cell-based; conditions: Selectivity number of off-targets 0.0, Selectivity number of targets 233.0, Source Knowledge https://www.sciencedirect.com/science/article/pii/S2451945619300674?via%3Dihub, at 1 µM
[6] = molecular target: Bromodomain adjacent to zinc finger domain protein 1A (Homo sapiens) (UniProt Q9NRL2); experiment: Selectivity interaction (Human bromodomain panel (DSF assay)) EUB0000233b BAZ1A
[7] = molecular target: Serine/threonine-protein kinase Nek6 (Homo sapiens) (UniProt Q9HC98); conditions: at 10 µM
[8] = molecular target: T1, Serine/threonine-protein kinase D2 (Homo sapiens) (UniProt Q9BZL6); experiment: Selectivity interaction (ActivX KiNativ screen (kinase selectivity in THP-1 cell lysates)) EUB0000639a PRKD2; format: subcellular; conditions: lysate, at 0.01 µM
T1 sequence (whole entry): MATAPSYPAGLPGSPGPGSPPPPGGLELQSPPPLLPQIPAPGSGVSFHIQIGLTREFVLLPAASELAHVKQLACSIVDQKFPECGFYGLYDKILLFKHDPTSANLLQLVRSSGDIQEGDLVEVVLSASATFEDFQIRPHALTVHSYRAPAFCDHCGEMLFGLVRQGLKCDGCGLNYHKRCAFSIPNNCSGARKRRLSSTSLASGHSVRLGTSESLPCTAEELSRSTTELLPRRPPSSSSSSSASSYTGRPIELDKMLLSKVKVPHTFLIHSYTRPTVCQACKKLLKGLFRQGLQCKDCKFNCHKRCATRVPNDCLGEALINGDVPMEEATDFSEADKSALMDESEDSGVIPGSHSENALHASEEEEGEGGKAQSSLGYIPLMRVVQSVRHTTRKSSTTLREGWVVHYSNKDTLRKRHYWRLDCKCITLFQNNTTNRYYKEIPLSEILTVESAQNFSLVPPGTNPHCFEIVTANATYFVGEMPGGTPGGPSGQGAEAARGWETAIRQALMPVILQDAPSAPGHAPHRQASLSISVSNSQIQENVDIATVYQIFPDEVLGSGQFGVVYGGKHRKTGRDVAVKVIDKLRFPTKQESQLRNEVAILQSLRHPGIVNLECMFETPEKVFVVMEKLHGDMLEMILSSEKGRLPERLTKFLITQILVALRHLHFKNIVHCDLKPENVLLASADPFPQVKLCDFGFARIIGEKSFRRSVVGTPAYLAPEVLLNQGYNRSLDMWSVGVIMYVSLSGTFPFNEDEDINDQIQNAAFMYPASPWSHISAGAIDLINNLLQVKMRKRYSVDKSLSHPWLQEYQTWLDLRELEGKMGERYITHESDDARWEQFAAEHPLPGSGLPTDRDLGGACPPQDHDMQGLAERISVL

[9] = molecular target: Cyclin-dependent kinase 5/CDK5 activator 1 (Homo sapiens) (UniProt Q00535+Q15078); experiment: Selectivity interaction (Kinase panel (Invitrogen)) EUB0000639a CDK5; format: protein-complex assay; conditions: at 200 nM
[10] = molecular target: Mitogen-activated protein kinase kinase kinase 21 (Homo sapiens) (UniProt Q5TCX8); experiment: Selectivity interaction (ActivX KiNativ screen (kinase selectivity in THP-1 cell lysates)) EUB0000639a MAP3K21; format: subcellular; conditions: lysate
[11] = Selectivity interaction (KinomeScan (DiscoverX)) EUB0000092b PKNB; conditions: at 10 µM
[12] = molecular target: Serine/threonine-protein kinase PAK 6 (Homo sapiens) (UniProt Q9NQU5); experiment: Selectivity interaction (KinomeScan (DiscoverX)) EUB0000045b PAK6; conditions: at 10 µM
[13] = molecular target: Maternal embryonic leucine zipper kinase (Homo sapiens) (UniProt Q14680); conditions: at 10 µM
[14] = molecular target: Phosphatidylinositol 4-phosphate 5-kinase type-1 gamma (Homo sapiens) (UniProt O60331); conditions: at 10 µM
[15] = molecular target: Casein kinase II subunit alpha (Homo sapiens, UniProt P68400); experiment: Selectivity interaction (Kinase panel (Enzyme activity assay)) EUB0000612a CSNK2A1
[16] = molecular target: T2, Phosphatidylinositol 5-phosphate 4-kinase type-2 beta (Homo sapiens) (UniProt P78356); experiment: Selectivity interaction (KinomeScan (DiscoverX)) EUB0001619a PIP4K2B; conditions: at 1 µM
T2 sequence (whole entry): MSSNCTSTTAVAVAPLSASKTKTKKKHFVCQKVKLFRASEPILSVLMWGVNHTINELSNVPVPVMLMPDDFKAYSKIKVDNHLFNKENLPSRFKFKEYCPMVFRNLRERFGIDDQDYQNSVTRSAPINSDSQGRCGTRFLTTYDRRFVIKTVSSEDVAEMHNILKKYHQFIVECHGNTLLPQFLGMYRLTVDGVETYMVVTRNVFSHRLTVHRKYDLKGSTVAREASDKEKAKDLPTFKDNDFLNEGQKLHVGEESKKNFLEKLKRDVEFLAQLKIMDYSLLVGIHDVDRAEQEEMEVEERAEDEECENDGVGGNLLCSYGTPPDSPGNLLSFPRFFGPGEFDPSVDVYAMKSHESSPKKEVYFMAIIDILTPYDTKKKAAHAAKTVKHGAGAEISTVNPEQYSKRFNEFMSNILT

[17] = molecular target: KCNE1 (Homo sapiens, UniProt P15382); experiment: Selectivity interaction (Panel of kinases, GPCRs, ion channels and transporters (enzymatic assay)) EUB0000223bCl KCNE1

Chain of Mitogen-activated protein kinase kinase kinase 21 (Homo sapiens) (Q5TCX8 whole entry): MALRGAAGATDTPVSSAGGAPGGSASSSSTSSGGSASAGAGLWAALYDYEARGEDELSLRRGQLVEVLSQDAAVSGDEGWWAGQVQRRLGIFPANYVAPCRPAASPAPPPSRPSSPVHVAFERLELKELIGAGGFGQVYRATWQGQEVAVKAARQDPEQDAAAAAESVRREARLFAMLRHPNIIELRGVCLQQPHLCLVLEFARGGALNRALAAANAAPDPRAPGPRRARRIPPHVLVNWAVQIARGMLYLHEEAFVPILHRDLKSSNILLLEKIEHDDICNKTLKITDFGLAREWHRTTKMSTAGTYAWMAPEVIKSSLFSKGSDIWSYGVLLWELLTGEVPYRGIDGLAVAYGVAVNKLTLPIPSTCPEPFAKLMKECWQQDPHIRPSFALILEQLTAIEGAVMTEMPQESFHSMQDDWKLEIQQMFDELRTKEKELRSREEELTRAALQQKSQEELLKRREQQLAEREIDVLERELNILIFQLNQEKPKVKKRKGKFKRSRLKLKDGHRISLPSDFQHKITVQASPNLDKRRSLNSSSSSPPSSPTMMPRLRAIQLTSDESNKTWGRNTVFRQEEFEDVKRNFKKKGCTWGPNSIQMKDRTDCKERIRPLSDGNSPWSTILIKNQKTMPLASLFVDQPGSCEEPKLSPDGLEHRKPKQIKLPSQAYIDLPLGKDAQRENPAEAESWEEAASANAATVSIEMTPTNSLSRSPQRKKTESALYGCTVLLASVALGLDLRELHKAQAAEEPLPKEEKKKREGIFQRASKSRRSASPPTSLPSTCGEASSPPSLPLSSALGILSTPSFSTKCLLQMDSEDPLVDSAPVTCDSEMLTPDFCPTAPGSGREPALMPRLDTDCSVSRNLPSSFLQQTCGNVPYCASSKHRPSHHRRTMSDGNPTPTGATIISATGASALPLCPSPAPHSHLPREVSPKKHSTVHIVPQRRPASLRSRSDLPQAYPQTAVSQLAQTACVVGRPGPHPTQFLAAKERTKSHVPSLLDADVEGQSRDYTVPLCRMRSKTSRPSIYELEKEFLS
Chain of Tyrosine-protein kinase Fes/Fps (Homo sapiens) (P07332 whole entry): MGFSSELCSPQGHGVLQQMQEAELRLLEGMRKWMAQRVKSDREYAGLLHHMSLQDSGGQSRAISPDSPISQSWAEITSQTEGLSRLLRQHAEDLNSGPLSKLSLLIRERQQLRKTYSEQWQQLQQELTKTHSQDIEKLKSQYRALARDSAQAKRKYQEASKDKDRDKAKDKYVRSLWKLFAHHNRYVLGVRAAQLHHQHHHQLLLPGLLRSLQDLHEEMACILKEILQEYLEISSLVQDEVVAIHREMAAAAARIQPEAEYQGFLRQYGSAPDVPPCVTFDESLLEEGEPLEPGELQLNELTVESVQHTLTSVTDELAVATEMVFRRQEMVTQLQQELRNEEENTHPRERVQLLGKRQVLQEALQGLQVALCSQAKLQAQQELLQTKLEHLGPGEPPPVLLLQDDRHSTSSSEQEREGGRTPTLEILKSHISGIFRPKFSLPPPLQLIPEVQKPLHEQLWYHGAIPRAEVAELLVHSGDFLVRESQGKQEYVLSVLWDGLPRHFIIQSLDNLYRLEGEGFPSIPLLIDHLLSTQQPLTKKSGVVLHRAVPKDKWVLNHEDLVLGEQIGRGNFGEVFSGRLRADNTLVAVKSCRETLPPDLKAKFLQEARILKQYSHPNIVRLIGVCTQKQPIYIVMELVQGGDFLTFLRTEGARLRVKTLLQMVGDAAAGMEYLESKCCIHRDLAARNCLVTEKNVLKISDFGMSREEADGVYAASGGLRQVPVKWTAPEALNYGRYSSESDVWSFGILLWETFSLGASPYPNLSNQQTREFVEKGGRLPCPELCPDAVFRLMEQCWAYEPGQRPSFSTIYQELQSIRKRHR
Chain of Cyclin-dependent kinase 5/CDK5 activator 1 (Homo sapiens) (Q00535 whole entry): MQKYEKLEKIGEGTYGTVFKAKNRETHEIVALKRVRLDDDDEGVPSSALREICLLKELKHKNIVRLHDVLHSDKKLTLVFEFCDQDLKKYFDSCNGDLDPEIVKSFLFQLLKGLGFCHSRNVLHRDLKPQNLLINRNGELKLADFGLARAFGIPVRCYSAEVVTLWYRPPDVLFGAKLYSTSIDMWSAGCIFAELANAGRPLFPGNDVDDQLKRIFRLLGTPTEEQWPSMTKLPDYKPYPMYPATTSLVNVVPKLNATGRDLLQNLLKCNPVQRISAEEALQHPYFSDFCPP
Chain of Cyclin-dependent kinase 5/CDK5 activator 1 (Homo sapiens) (Q15078 99-307 partner limits assumed): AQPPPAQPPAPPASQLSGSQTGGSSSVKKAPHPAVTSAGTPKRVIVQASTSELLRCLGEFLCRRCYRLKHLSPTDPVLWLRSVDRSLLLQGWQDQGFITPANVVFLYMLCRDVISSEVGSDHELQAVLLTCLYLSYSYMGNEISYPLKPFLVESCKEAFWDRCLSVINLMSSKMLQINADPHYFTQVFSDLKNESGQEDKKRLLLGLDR
Chain of Phosphatidylinositol 4-phosphate 5-kinase type-1 gamma (Homo sapiens) (O60331 whole entry): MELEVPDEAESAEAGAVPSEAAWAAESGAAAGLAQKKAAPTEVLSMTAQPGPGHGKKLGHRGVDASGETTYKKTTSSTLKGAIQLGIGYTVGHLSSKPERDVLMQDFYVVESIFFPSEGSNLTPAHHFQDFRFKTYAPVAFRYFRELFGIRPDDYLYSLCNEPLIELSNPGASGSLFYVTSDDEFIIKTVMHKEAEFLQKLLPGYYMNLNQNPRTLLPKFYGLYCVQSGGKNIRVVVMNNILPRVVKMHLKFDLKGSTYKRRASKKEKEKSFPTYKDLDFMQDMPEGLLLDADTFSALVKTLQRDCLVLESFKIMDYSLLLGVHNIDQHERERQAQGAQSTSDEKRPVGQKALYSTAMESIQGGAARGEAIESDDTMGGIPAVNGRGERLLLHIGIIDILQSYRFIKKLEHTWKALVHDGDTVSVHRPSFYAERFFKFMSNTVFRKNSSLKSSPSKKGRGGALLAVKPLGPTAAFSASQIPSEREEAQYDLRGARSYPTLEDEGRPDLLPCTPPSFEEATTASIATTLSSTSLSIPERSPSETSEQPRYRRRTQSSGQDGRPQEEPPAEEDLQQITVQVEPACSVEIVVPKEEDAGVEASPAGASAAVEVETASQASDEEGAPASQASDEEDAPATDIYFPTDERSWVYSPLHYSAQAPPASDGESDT
Chain of Serine/threonine-protein kinase PAK 6 (Homo sapiens) (Q9NQU5 whole entry, looked up): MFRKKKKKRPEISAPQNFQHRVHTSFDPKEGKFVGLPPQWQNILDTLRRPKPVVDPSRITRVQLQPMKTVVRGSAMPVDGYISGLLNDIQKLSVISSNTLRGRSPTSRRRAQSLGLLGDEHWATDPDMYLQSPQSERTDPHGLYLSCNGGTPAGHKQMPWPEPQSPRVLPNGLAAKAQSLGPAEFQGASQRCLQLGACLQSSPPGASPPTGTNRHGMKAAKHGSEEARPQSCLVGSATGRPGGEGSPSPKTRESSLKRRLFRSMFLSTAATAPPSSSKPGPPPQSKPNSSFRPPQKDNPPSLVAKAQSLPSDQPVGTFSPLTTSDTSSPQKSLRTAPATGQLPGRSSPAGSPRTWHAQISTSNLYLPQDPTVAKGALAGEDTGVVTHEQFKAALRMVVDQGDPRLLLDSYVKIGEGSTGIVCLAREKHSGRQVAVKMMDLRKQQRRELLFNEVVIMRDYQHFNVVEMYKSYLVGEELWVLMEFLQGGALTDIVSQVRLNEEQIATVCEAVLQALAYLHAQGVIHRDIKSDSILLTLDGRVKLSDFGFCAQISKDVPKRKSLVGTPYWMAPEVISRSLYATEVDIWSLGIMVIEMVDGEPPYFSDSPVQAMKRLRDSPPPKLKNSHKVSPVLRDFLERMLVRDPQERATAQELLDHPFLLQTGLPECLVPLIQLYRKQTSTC
Chain of Maternal embryonic leucine zipper kinase (Homo sapiens) (Q14680 whole entry, looked up): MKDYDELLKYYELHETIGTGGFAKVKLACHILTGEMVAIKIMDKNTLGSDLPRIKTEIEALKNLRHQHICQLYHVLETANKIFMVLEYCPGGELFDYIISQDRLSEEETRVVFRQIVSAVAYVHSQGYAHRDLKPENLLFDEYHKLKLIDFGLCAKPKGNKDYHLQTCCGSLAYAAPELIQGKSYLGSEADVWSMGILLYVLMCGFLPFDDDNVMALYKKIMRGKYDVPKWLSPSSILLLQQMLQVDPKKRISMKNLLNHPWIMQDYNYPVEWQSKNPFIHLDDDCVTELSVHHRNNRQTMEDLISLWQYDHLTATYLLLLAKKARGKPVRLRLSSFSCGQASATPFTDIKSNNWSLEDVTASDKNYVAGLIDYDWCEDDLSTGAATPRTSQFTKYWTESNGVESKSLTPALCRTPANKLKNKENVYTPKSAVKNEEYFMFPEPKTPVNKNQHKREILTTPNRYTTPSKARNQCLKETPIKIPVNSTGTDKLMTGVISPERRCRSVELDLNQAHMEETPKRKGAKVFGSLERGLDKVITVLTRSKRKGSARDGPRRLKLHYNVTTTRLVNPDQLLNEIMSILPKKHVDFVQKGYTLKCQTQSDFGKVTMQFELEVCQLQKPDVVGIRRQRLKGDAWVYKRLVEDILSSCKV
Chain of Serine/threonine-protein kinase pim-2 (Q9P1W9 whole entry): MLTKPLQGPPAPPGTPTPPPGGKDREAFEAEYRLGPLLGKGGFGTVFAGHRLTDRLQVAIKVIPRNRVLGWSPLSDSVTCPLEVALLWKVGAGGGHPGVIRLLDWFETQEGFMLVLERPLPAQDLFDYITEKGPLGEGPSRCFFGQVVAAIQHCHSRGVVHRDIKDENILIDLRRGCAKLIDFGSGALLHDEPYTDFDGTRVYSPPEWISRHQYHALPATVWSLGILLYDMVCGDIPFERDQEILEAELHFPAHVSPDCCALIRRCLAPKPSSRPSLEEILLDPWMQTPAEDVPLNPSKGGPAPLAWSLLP

In the case of COc1cc(Nc2nc(C)cc(-c3cnn4nc(OC)ccc34)n2)cc(C(F)(F)F)c1, the IC50 [1] is reported as > 10 µM.

CC(=O)Nc1cccc(-n2c(=O)n(C3CC3)c(=O)c3c(Nc4ccc(I)cc4F)n(C)c(=O)c(C)c32)c1 showed a % of control [2] of 95%.

With O=C(NOC[C@H](O)CO)c1ccc(F)c(F)c1Nc1ccc(I)cc1F the % of control [3] was 84%.

Compound C=CC(=O)Nc1ccc(C(=O)Nc2[nH]nc3c2CN(C(=O)N[C@H](CN(C)C)c2ccccc2)C3(C)C)cc1 has a % of engagement [4] of 4.3% and a % of engagement [5] of 1.1%.

In the case of CN(C)CCCOc1ccc(-c2cc(NCCCn3cccn3)nc(S(C)(=O)=O)n2)cc1, the dTM [6] is reported as < 2 K.

In the case of CCN(CC)CCCCNc1ncc2cc(-c3cc(OC)cc(OC)c3)c(NC(=O)NC(C)(C)C)nc2n1, the % of control [7] is reported as 100%.

CC[C@@H]1[C@H](F)C(=O)N[C@@H]1COc1nccc2cc(C(N)=O)c(OC)cc12 [ZIMLOVISERTIB] showed a % of inhibition [8] of -7.2%, a % of inhibition [9] of 2.19% and a % of inhibition ([10]; at 0.01 µM) of 7.8%. For the same compound, the % of inhibition ([10]; at 0.04 µM) was 2%, the % of inhibition ([10]; at 0.2 µM) was 4.6% and the % of inhibition ([10]; at 1 µM) was 14%. The % of inhibition ([10]; at 5 µM) was 17%.

With CCC(=O)N1CCN(c2ccc(-n3c(=O)ccc4cnc5ccc(-c6cnc7ccccc7c6)cc5c43)cc2C(F)(F)F)CC1 the % of control [11] was 64%.

In the case of C=CC(=O)Nc1cc(-n2c(=O)ccc3cnc4ccc(-c5ccc(NS(C)(=O)=O)cc5)cc4c32)ccc1C, the % of control [12] is reported as 100%.

Cc1cc([C@@H](C)Nc2ccccc2C(=O)O)c2nc(N3CCOCC3)cc(=O)n2c1 [AZD-6482] gave a % of control [13] of 100% and a % of control [14] of 63%.

CCc1cccc(CC)c1NC(=O)c1nn(C)c2c1CCc1cnc(Nc3ccc(C(=O)NC4CCN(C)CC4)cc3OC(F)(F)F)nc1-2 showed an IC50 [15] of 5.7 µM.

With N#Cc1cccc(-c2c[nH]c3ncnc(N4CCOCC4)c23)c1 the % of control [16] was 23%.

For COc1cc(C(=O)N2CC[C@@H](O)[C@@H](N)C2)cc2nc(-c3cc4ccccc4n3CC3CC3)n(C)c12, the XC50 [17] was > 25.1 µM.
